From patent publication US12427147B2, “Retinal ganglion cell death inhibitor” (SENJU PHARMACEUTICAL CO., LTD., priority 2018, dated 2025)

B1: Noggin: a BMP inhibitor (naturally occurring protein) (protein, UniProt Q13253 28-232, looked up)
Noggin: QHYLHIRPAPSDNLPLVDLIEHPDPIFDPKEKDLNETLLRSLLGGHYDPGFMATSPPEDRPGGGGGAAGGAEDLAELDQLLRQRPSGAMPSEIKGLEFSEGLAQGKKQRLSKKLRRKLQMWLWSQTFCPVLYAWNDLGSRFWPRYVKVGSCFSKRSCSVPEGMVCKPSKSVHLTVLRWRCQRRGGQRCGWIPIQYPIISECKCSC
B2: BMP4: a kind of BMP (bone morphogenetic protein) (protein, UniProt P12644 293-408, looked up)
Bone morphogenetic protein 4: SPKHHSQRARKKNKNCRRHSLYVDFSDVGWNDWIVAPPGYQAFYCHGDCPFPLADHLNSTNHAIVQTLVNSVNSSIPKACCVPTELSAISMLYLDEYDKVVLKNYQEMVVEGCGCR

What was measured:
[1] = system: rat retinal ganglion cells; assay: Menadione-induced retinal ganglion cell death, low-molecular ALK3 inhibitors (Example 2); assay type: cell-based; conditions: 6 μM menadione; for dose dependence of cell death inhibitory effect: 100 nM to 10 μM K02288, 100 nM to 1 μM LDN-193189; for cell death inhibitory effect compared to the group treated with menadione alone / protection of cells from retinal ganglion cell death induced by menadione: 18 hours
Experimental: Rat retinal ganglion cells were isolated in the same manner as in Example 1. In the experimental system (FIG. 2A) of K02288 treatment, three rats were used; whereas, in the experimental system (FIG. 2B) of LDN-193189 treatment, two rats were used.
Retinal ganglion cells were suspended in RGC culture medium and seeded in the wells of a 96-well plate at a density of 1×10^4 cells/well and cultured at 37° C. under a 5% CO2 atmosphere for 24 hours. Twenty four hours later, the medium was removed. To a medium for a menadione reaction, 6 μM menadione and ALK3 inhibitors, i.e., K02288 (Tocris Bioscience) or LDN-193189 (MedChemExpress) (PLOS ONE 2013 8 (4) e62721) were added in accordance with the constitutions of individual groups. DMSO was added to a non K02288 treatment group or a non LDN-193189 treatment group, (a group treated with menadione alone). The cells were incubated at 37° C. for 18 hours and thereafter stained by use of LIVE/DEAD Viability/Cytotoxicity Kit (Thermo Fisher Scientific Inc.). Three photographs per well were taken by use of IncuCyte S3 live cell analysis system (Essen Bioscience) and analyzed. Data was calculated as the ratio of the number of survival cells relative to a total number of dead cells and survival cells. The RGC culture medium and medium for a menadione reaction used herein are the same as those used in Example 1.
Constitutions of groups (a group treated with K02288: n=8, a group treated with LDN-193189: n=6)
Control group: menadione was absent
A group treated with menadione alone: menadione and DMSO were added
A group treated with K02288 (3 groups: 100 nM, 1 μM, 10 μM): menadione and K02288 were added
A group treated with LDN-193189 (2 groups: 100 nM, 1 μM): menadione and LDN-193189 were added.

[2] = system: rat retinal ganglion cells; assay: Menadione-induced retinal ganglion cell death, antibody/K02288 treatment (Example 1); assay type: cell-based; conditions: 6 μM menadione, 18 hours, vs Normal IgG treatment group, n=3, FIG. 1C
Experimental: The retina was taken out from each of 7 days-old SD rats (13 rats) (Japan SLC Co., Ltd.) and retinal cells were dispersed by Dissociation Kit-Postnatal Neurons (Miltenyi Biotec). Thereafter, retinal ganglion cells (RGC) were isolated from other retinal cells by use of Retinal Ganglion Cell Isolation Kits (Miltenyi Biotec).
The retinal ganglion cells were suspended in RGC culture medium, seeded in the wells of a 96-well plate at a density of 2×10^4 cells/well and cultured at 37° C. under a 5% CO2 atmosphere for 24 hours. Twenty four hours later, the medium was removed. To a medium for a menadione reaction, 6 μM menadione, Normal rabbit IgG (Santa Cruz Biotechnology, Inc.), an anti-ALK3 antibody (Anti-BMPR1A antibody, Abcam plc.), an anti-ALK4 antibody (anti-Activin A receptor Type IB antibody, Abcam plc.) and an ALK3 inhibitor, i.e., K02288 (Tocris Bioscience) (PLOS ONE 2013 8 (4) e62721) were added in accordance with the constitutions of individual groups (described later) and incubation was performed at 37° C. for 18 hours. […] Three photographs per well were taken by IncuCyte S3 live cell analysis system (Essen Bioscience) and analyzed. Data was calculated as the ratio of the number of survival cells relative to a total number of dead cells and survival cells. […]

[3] = system: retinal ganglion cells; conditions: mouse retina, Non Patent Literature 1; cited from earlier work
[4] = 1 μM test compound, FIGS. 2A and 2B

Molecule | dose dependence of cell death inhibitory effect [1] | cell death inhibitory effect compared to the group treated with menadione alone [1, 4] | protection of cells from retinal ganglion cell death induced by menadione [1] | cell death inhibitory effect compared to the group treated with menadione alone ([1]; 10 μM test compound, FIG. 2A) | suppression of retinal ganglion cell death (ratio of survival cells to total cells) [2] | effect on retinal ganglion cell death induced by NMDA [3]
COc1cc(-c2cc(-c3cccc(O)c3)cnc2N)cc(OC)c1OC [K02288, 3-[6-amino-5-(3,4,5-trimethoxyphenyl)-3-pyridinyl]-phenol] | cell death inhibitory effect in a dose-dependent manner | significant cell death inhibitory effect | exerted an effect to protect cells | significant cell death inhibitory effect | cell death was significantly suppressed | –
c1ccc2c(-c3cnn4cc(-c5ccc(N6CCNCC6)cc5)cnc34)ccnc2c1 [LDN-193189, 4-[6-(4-piperazin-1-yl-phenyl)-pyrazolo[1,5-α]pyrimidin-3-yl]-quinoline] | cell death inhibitory effect in a dose-dependent manner | significant cell death inhibitory effect | exerted an effect to protect cells | – | – | –
B1 | – | – | – | – | – | accelerated
B2 | – | – | – | – | – | suppressed
